Results taken from US5731357A, “Immunomodulating active substance” (priority 1996, dated 1998).

Experiments:
[1] = test system: ink clearance, phagocytic activity in vivo; test: Ink clearance (phagocytosis in vivo); set-up: species or system mouse; conditions: In intraperitoneally 0.5, 5.0 and 50.0 mg/kg
Experimental: 5. Estimation of phagocytic activity of peritoneal macrophages in mice, using JgG-opsonized sheep erythrocytes as the phagocytosis target /10/. Macrophages were attracted by 4-percent hydrolyzed starch solution. On the 3rd or 4th day, 0.5 ml of 5-percent sheep erythrocyte suspension were administered intraperitoneally. Following 60 minutes, exudate was removed. Non phagocytic sheep erythrocytes were subjected to lysis. Cell suspension was washed out. The preparation stained per Romanovsky-Gimze was determined for phagocyting cell percentage. To determine phagocytic index (PI1), the number of sheep erythroccytes captured was calculated spectrophotometrically /11/ by hemoglobin concentration using a calibration curve. Phagocytic index (P12) was determined again following 3 hours of incubation at 37° C. Phagocytosis completion index (PCI) was calculatd using the following formula: [formula] […] Blood taking completed, animals were killed and body weight, liver and spleen weight were measured. Optical density of hemolyzed blood determined spectrophometrically at 610 nm wavelenght, and the f (D) t curve was plotted. […] Phagocytosys constant (K) was calculated using the following formula: [formula] and then true phagocytosis index (α) was calculated using the following formula: [formula] […]

[2] = test system: hemagglutinin titers for sheep erythrocytes in mouse serum; test: Hemagglutinin (HA) titer for sheep erythrocytes in mouse serum; type: in vivo
peritoneal macrophages = test: Phagocytic activity of peritoneal macrophages (opsonized sheep erythrocytes); type: in vivo, mouse; conditions: for Stimulation degree (phagocytosis completion index increase): F1 mice
Experimental: 5. Estimation of phagocytic activity of peritoneal macrophages in mice, using JgG-opsonized sheep erythrocytes as the phagocytosis target /10/. Macrophages were attracted by 4-percent hydrolyzed starch solution. On the 3rd or 4th day, 0.5 ml of 5-percent sheep erythrocyte suspension were administered intraperitoneally. Following 60 minutes, exudate was removed. Non phagocytic sheep erythrocytes were subjected to lysis. Cell suspension was washed out. The preparation stained per Romanovsky-Gimze was determined for phagocyting cell percentage. To determine phagocytic index (PI1), the number of sheep erythroccytes captured was calculated spectrophotometrically /11/ by hemoglobin concentration using a calibration curve. Phagocytic index (P12) was determined again following 3 hours of incubation at 37° C. Phagocytosis completion index (PCI) was calculatd using the following formula: [formula] […] Then, for 15 minutes blood was taken from orbital sinus (0.020 ml) every 3 minutes and introduced into 1 ml of 3-percent acetic acid. Blood taking completed, animals were killed and body weight, liver and spleen weight were measured. Optical density of hemolyzed blood determined spectrophometrically at 610 nm wavelenght, and the f (D) t curve was plotted. Points lg (0) (zero time) and lg(10) (on the curve) were located. Phagocytosys constant (K) was calculated using the following formula: [formula] and then true phagocytosis index (α) was calculated using the following formula: [formula] 7. Complement activity determination using the titration technique employing rabbit erythrocytes treated with hyperimmune antiserum of guinea pig /12/ for direct activation route and employing rabbit erythrocytes treated with potassium iodide solution /13/ for alternative activation route. Activity was expressed in units 50-percent lysis per ml of serum (CH50).
The effect of In given at doses of 0.5, 5.0 and 50.0 mg/kg on phagocytosis index was studied in hybrid line F1 (CBA×C57B1/6) mice, with he drug administered intraperitonreallly 30 minutes before injection of the phagocytosis target, i.e. sheep erythrocytes.

[3] = test system: delayed skin reaction (DSR) to sheep erythrocytes; test: Delayed skin reaction (DSR); type: in vivo, mouse; conditions: inosiplex 0.5, 5.0 and 50.0 mg/kg; mice of two lines; listed as In
Experimental: Experimental animals were intraperitoneally administered doses of 10.0 and 100.0 mg/kg in 0.1 ml in parallel to antigen administration; similar doses were given per os for 5 days before antigen administration.
(§1) In was dissolved in physiological solution and administered intraperitonerally at single doses together with antigen (sheep erytrcytes). Physiological solution was used as a control.
(§2) 3. DSR deermination using intravenoous immunization of mice with sheep erythrocytes administered at a dose of 2×10^5 cells. A resolution dose (1×10^8 cells in 0.04 ml of physiological solution) was injected in a hind footpad on the 5th day following immunization. Local inflammatory reaction was accounted for 24 hours later by the difference of mass between experimental (Re) and control (Rc) footpads. Reaction index (RI) was calculated for each mouse using the following formula: [formula] 4. GVHR determination. GVHR was induced by subcutaneous administration of 2×10^6 lymph node cells of […] (CBA) into right hind footpads of line F1 (CBA×C57B1/6) mice. Syngeneic lymphocytes were administered into left footpads. Cell count was determined in 5 ml of homogenate of left (control) and right (experiment) lymph nodes.

[4] = test system: graft-versus-host reaction (GVHR); test: Graft-versus-host reaction (GVHR); type: in vivo, mouse; conditions: inosiplex 50.0 mg/kg
Experimental: as §1, §2

[5] = test system: antibody-forming cells in mouse spleen (sheep erythrocytes as antigen); test: Antibody-forming cell (AFC) count in mouse spleen, local hemolysis reaction (humoral immune response); type: in vivo; conditions: for AFC stimulation degree: C57B1/6; for AFC count per 10^6 nucleated spleen cells: C57B1/6 males 20-22 g; for AFC stimulating effect: 50.0 mg/kg, low responsive line mice
[6] = third dose column (printed 5.0 mg/kg), 2 × 10^7 sheep erythrocytes

## CC(=O)Nc1ccc(C(=O)O)cc1.CC(=O)Nc1ccc(C(=O)O)cc1.CC(=O)Nc1ccc(C(=O)O)cc1.CC(O)CN(C)C.CC(O)CN(C)C.CC(O)CN(C)C.O=c1[nH]cnc2c1ncn2[C@@H]1O[C@H](CO)[C@@H](O)[C@H]1O [Inosiplex]
[1]
  blood clearence rate (in words): no effect on blood clearence rate
  capturing intensity of inert ink particles (in words): no changes in capturing intensity of inert ink particles
[2]; 250.0 mg/kg, CBA males 20-22 g, n = 8, suboptimum sheep erythrocyte dose, P< 0.02
  HA titer, 14th day after immunisation: 8.5 log2
[2]; 250.0 mg/kg, line CBA
  stimulation of hemagglutinin production (fold): as much as two times
  stimulation of hemagglutinin production (log2 of hemagglutinin titer): 1 log2 of hemagglutinin titer
[2]; 0.5, 5.0 and 25.0 mg/kg, line CBA, 7th and 14th day, suboptimum immunisation
  effect on hemagglutinin titer (in words): no stimulating effect
Peritoneal macrophages; 5.0 mg/kg, intraperitoneal
  Stimulation degree (phagocytosis completion index increase): 39%
Peritoneal macrophages; 50.0 mg/kg, intraperitoneal
  Stimulation degree (phagocytosis completion index increase): 76%
Peritoneal macrophages; common to inosplex and Rp
  phagocytosis and digesting ability of macrophages (in words): Stimulation of phagocytosis and digesting ability of macrophages
Peritoneal macrophages; inosiplex 0.5 mg/kg, F1, intraperitoneal
  phagocytosis index (in words): no stimulation effect
Peritoneal macrophages; intraperitoneal 5.0 and 50.0 mg/kg
  stimulation of phagocytosis completion: 1.4-1.7 times
[3]
  DSR intensity (in words): no changes in the reaction intensity
[4]
  GVHR (in words): slight inhibitory effect
[5]; 0.5 mg/kg, 10^8 sheep erythrocytes (optimum)
  AFC stimulation degree: 90%
[5]; 0.5 mg/kg, 2 × 10^7 sheep erythrocytes
  AFC count per 10^6 nucleated spleen cells: 52(63'44)
[5]; 0.5 mg/kg, 10^8 sheep erythrocytes, p < 0.05
  AFC count per 10^6 nucleated spleen cells: 158(186'134)
[5]; 5.0 mg/kg, 2 × 10^7 sheep erythrocytes (suboptimum)
  AFC stimulation degree: 38%
[5]; 5.0 mg/kg, 10^8 sheep erythrocytes (optimum)
  AFC stimulation degree: 82%
[5]; 5.0 mg/kg, 2 × 10^7 sheep erythrocytes
  AFC count per 10^6 nucleated spleen cells: 117(149'98)
[5]; 5.0 mg/kg, 10^8 sheep erythrocytes, p < 0.05
  AFC count per 10^6 nucleated spleen cells: 151(169'134)
[5]; optimum immunisation
  AFC stimulating effect: 139%
[5]; suboptimum immunisation
  AFC stimulating effect: 32%
[5]; 5.0 and 50.0 mg/kg, animals low responsive to antigen
  stimulation of humoral immune response: 1.3-1.8 fold
[5]; common to inosplex and Rp
  antibody-forming cells in the spleen (in words): Stimulation of forming antibody-forming cells in the spleen
[5]; strong-replied animals, optimal dose of antigen
  humoral immune reaction (in words): Suppress of humoral immune reaction
[5]; [6]
  AFC stimulation degree: 32%
  AFC count per 10^6 nucleated spleen cells: 112(141'89)
[5]; third dose column (printed 5.0 mg/kg), 10^8 sheep erythrocytes
  AFC stimulation degree: 139%
[5]; third dose column (printed 5.0 mg/kg), 10^8 sheep erythrocytes, p < 0.01
  AFC count per 10^6 nucleated spleen cells: 199(245'162)
[5]; weak-replied animals, and strong-replied mice with suboptimum dose of antigen
  humoral immune reaction (in words): Stimulation of humoral immune reaction
